Where two headings read alike, the source gives them in different places. One block for each compound: values may come before it.
What was measured:
[1] = target: T1, human recombinant adrenergic α1D receptor (Homo sapiens, UniProt P25100); test: Radioligand binding, adrenergic α1D ([3H]Prazosin); details: for Percentage inhibition of ligand binding, Adrenergic α1D: 0.1 μM compound, 0.1 µM
T1 construct: expressed in transfected cells; host or cells: HEK-293
T1 sequence (P25100 1-572): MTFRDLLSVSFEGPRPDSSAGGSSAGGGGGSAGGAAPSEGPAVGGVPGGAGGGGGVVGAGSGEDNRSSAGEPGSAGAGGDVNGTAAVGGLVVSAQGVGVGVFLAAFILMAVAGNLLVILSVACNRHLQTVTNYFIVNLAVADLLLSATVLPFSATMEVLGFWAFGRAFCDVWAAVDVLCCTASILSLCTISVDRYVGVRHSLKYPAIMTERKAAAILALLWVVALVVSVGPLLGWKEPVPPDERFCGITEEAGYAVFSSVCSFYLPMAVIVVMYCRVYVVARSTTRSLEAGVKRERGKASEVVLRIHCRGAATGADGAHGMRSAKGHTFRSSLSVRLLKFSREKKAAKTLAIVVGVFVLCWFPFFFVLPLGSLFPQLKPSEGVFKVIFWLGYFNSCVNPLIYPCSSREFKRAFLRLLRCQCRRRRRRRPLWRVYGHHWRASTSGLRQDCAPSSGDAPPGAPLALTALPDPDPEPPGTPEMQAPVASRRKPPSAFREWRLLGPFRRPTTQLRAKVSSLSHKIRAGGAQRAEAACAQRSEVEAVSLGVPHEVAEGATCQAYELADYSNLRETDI
Method: Compounds were incubated with 0.6 nM [3H]Prazosin for 60 min at 25° C. Non-specific binding was estimated in the presence of 10 μM phentolamine. Receptor proteins were filtered and washed, the filters were then counted to determine [3H]Prazosin specifically bound. […] Biochemical assay results are presented as the percent inhibition of specific binding in Table B1.

[2] = target: T2, human recombinant adrenergic α2A receptor (Homo sapiens, UniProt P08913); test: Radioligand binding, adrenergic α2A ([3H]MK-912); details: for Percentage inhibition of ligand binding, Adrenergic α2A: 0.1 µM
T2 construct: expressed in transfected cells; host or cells: insect Sf9 cells
T2 sequence (P08913 1-465): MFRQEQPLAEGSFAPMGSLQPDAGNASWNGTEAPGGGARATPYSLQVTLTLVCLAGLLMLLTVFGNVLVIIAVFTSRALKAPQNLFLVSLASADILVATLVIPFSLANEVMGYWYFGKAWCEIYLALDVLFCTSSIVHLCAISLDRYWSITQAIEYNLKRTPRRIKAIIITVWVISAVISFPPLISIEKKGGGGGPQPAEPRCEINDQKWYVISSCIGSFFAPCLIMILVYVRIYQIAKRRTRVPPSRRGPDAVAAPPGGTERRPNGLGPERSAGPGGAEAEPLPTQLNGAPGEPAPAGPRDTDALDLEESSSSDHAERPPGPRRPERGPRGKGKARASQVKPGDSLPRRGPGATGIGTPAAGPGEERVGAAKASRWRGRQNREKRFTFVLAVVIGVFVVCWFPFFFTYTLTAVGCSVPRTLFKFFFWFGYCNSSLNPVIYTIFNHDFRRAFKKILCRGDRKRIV
Outline: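 Sf9-expressed receptor was incubated with compound for 60 min at 25 °C in modified Tris-HCl buffer, pH 7.4. Nonspecific binding was taken as that remaining with 10 μM WB-4101.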

[3] = target: T3, rat adrenergic α1B receptor (Rattus norvegicus, UniProt P15823); test: Radioligand binding, adrenergic α1B ([3H]Prazosin); details: for Percentage inhibition of ligand binding, Adrenergic α1B: 0.1 µM
T3 construct: rat adrenergic α1B receptor obtained from Wistar Rat liver; from tissue; host or cells: Wistar rat liver
T3 sequence (P15823 1-515): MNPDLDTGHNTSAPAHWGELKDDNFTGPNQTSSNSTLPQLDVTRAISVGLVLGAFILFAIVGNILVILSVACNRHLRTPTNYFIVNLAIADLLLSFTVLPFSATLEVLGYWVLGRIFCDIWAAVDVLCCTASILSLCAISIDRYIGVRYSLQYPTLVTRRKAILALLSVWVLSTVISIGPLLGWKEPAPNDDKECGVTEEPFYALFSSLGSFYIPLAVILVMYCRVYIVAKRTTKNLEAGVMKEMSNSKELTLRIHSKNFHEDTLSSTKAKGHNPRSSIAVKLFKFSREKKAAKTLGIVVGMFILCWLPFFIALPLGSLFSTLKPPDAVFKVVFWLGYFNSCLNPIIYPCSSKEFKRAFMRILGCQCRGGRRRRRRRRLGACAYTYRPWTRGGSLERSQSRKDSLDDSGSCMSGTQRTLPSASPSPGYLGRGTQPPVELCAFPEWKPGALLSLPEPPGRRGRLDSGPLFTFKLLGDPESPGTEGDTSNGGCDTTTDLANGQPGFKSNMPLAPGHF
Outline: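 Incubation ran 60 min at 25 °C in Tris-HCl buffer (50 mM, pH 7.4, 0.5 mM EDTA) with Wistar rat liver α1B receptor. 10 μM phentolamine set non-specific binding.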

[4] = target: T4, human recombinant adrenergic α2B receptor (Homo sapiens, UniProt P18089); test: Radioligand binding, adrenergic α2B ([3H]Rauwolscine); details: for Percentage inhibition of ligand binding, Adrenergic α2B: 0.03 µM
T4 construct: expressed in transfected cells; host or cells: CHO-K1
T4 sequence (P18089 1-450): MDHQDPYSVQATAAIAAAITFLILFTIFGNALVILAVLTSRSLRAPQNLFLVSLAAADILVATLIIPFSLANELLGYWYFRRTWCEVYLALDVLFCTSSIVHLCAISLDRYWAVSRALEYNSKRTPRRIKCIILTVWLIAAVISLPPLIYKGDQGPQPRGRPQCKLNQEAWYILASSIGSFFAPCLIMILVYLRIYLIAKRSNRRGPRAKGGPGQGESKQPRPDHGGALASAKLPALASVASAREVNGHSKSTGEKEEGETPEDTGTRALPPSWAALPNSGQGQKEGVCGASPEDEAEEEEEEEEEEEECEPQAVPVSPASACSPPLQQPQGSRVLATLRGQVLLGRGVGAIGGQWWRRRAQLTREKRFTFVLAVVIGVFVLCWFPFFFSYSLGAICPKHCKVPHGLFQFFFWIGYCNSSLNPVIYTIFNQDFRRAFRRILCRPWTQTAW
Outline: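 Assay used CHO-K1-expressed human α2B receptor in Tris-HCl pH 7.4 buffer with MgCl2, EDTA and BSA; 60 min incubation at 25 °C.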

[5] = compound at 0.1 μM, [3H]Prazosin, repeat assays, each datapoint shown
[6] = compound at 0.1 μM, [3H]Prazosin, repeat assays, each datapoint shown, read-out: Percentage inhibition of ligand binding, Adrenergic α1B
[7] = compound at 0.03 μM, [3H]Rauwolscine, repeat assays, each datapoint shown, read-out: Percentage inhibition of ligand binding, Adrenergic α2B
[8] = compound at 0.03 μM, [3H]Rauwolscine, repeat assays, each datapoint shown
[9] = compound at 0.1 μM, [3H]MK-912, repeat assays, each datapoint shown

inhibition at 0.03 µM ([1]; read-out: Percentage inhibition of ligand binding, Adrenergic α1D (0.03 μM), compound at 0.03 μM, [3H]Prazosin, repeat datapoints each shown): 3%
inhibition at 0.03 µM ([2]; read-out: Percentage inhibition of ligand binding, Adrenergic α2A (0.03 μM), compound at 0.03 μM, [3H]MK-912, repeat datapoints each shown): 69%
SMILES: CN1CCc2c(c3cc(F)ccc3n2CCc2ccc(F)cc2)C1 [compound 219]

Percentage inhibition of ligand binding, Adrenergic α1B ([3]; 0.1 μM compound): 30%
Percentage inhibition of ligand binding, Adrenergic α1D [1]: 36%
Percentage inhibition of ligand binding, Adrenergic α2A ([2]; 0.1 μM compound): 68%
SMILES: CC(Cn1c2c(c3ccccc31)CN(C)CC2)c1ccc(F)cc1 (single isomer, unassigned) [272b]

inhibition at 0.1 µM ([4]; 0.1 μM compound, read-out: Percentage inhibition of ligand binding, Adrenergic α2B): 104%
Percentage inhibition of ligand binding, Adrenergic α1D [1]: 88%
SMILES: Cc1ccc2c(c1)c1c(n2CC(C)c2ccc(F)cc2)CCN(C)C1 (single isomer, unassigned) [288a]

Percentage inhibition of ligand binding, Adrenergic α1B [3, 5]: 28%
inhibition at 0.1 µM [3, 6]: 27%
inhibition at 0.03 µM [4, 7]: 75%
inhibition at 0.1 µM ([4]; compound at 0.1 μM, [3H]Rauwolscine, repeat assays, each datapoint shown, read-out: Percentage inhibition of ligand binding, Adrenergic α2B): 95%
inhibition at 0.1 µM ([1]; compound at 0.1 μM, [3H]Prazosin, repeat assays, each datapoint shown, read-out: Percentage inhibition of ligand binding, Adrenergic α1D): 13%
SMILES: Cc1ccc2c(c1)c1c(n2CC(C)(O)c2ccncc2)CCN(C)C1 (stereo not drawn) [compound 2]

inhibition at 0.1 µM [3, 6]: 93%
Percentage inhibition of ligand binding, Adrenergic α2B [4, 8]: 93%
Percentage inhibition of ligand binding, Adrenergic α2A [2, 9]: 19%
SMILES: CN1CCc2c(n(CC(O)c3ccncc3)c3ccc(Cl)cc23)CC1 (stereo not drawn) [compound 15, 2-(9-chloro-3-methyl-2,3,4,5-tetrahydroazepino[4,5-b]indol-6(1H)-yl)-1-(pyridin-4-yl)ethanol]

inhibition at 0.1 µM ([3]; read-out: Percentage inhibition of ligand binding, Adrenergic α1B (0.1 μM), compound at 0.1 μM, [3H]Prazosin, repeat datapoints each shown): 9%
inhibition at 0.03 µM ([4]; read-out: Percentage inhibition of ligand binding, Adrenergic α2B (0.03 μM), compound at 0.03 μM, [3H]Rauwolscine, repeat datapoints each shown): 16%
inhibition at 0.1 µM ([2]; read-out: Percentage inhibition of ligand binding, Adrenergic α2A (0.1 μM), compound at 0.1 μM, [3H]MK-912, repeat datapoints each shown): 54%
SMILES: Cc1ccc(CCn2c3c(c4c(F)ccc(Cl)c42)CN(C)CC3)cn1 [II-253]

inhibition at 0.1 µM [3, 6]: 8%
inhibition at 0.03 µM [4, 7]: 26%
inhibition at 0.1 µM ([2]; compound at 0.1 μM, [3H]MK-912, repeat assays, each datapoint shown, read-out: Percentage inhibition of ligand binding, Adrenergic α2A): 10%
SMILES: CC(O)c1ccc2c(c1)c1c(n2CC(O)c2ccncc2)CCN(C)C1 (stereo not drawn) [compound 70]

inhibition at 0.1 µM ([3]; 0.1 μM compound, read-out: Percentage inhibition of ligand binding, Adrenergic α1B): 30%
inhibition at 0.03 µM ([4]; 0.03 μM compound, read-out: Percentage inhibition of ligand binding, Adrenergic α2B): 47%
inhibition at 0.1 µM ([2]; 0.1 μM compound, read-out: Percentage inhibition of ligand binding, Adrenergic α2A): 25%
SMILES: CC1c2c(c3cc(Cl)ccc3n2CC(O)c2ccncc2)CCN1C (stereo not drawn) [II-72]

Percentage inhibition of ligand binding, Adrenergic α1B [3, 5]: 11%
Percentage inhibition of ligand binding, Adrenergic α2B [4, 8]: 23%
Percentage inhibition of ligand binding, Adrenergic α2A [2, 9]: 4%
SMILES: Cc1ccc2c(c1)c1c(n2CC(O)c2cccnc2)CCNC1 (single isomer, unassigned) [9a, 2-(8-methyl-1,2,3,4-tetrahydro-pyrido[4,3-b]indol-5-yl)-1-pyridin-3-yl-ethanol]

Source: patent US8791132B2, “Compounds and methods for treatment of hypertension” (Medivation Technologies, Inc., priority 2011, dated 2014)
